US20230374007A1, “COMPOUNDS AND THEIR USE IN TREATING CANCER” (AstraZeneca AB, priority 2020, published 2023)

target: T1, cereblon (CRBN)—DNA damage protein 1 (DDB1) complex (Homo sapiens, UniProt Q96SW2); test: Cereblon HTRF binding assay
T1 construct: encoding amino acid residues 1 to 442 (Uniprot Q96SW2); hexahistidine (N); thrombin cleavage site (N); made in house; host or cells: Sf9 insect cells (baculovirus co-infection)
Text: The synthesized sequence was designed to encode an N-terminal hexahistidine tag, a thrombin cleavage site, an AviTag™ and a tobacco etch virus protease (TEV) cleavage site followed by the CBRN sequence. The resulting protein sequence is listed below.
The synthesized sequence was designed to encode an N-terminal hexahistidine tag, a tobacco etch virus protease (TEV) cleavage site followed by the DDB1 sequence. […] The linker amino acid residues are underlined and shown in italics.
Baculovirus production of CBRN and DDB1: Recombinant bacmid and P2 virus of CBRN and DDB1 was generated according to the Bac-to-Bac Baculovirus Expression System manual (ThermoFisher Scientific).
Protein Purification: Protein purification was initiated by thawing cells (resuspended in Lysis buffer) at r.t. Once thawed, NaCl was added to a final concentration of 200 mM, followed by 0.01 μL/mL Benzonase™ and the lysate was incubated with slow stirring for 20 minutes. After the freeze-thaw lysis, the whole cell lysate was centrifuged at 48 000 g for 45 minutes and all following purification steps were done on ice or in cold-room. Supernatant (cell lysate) was mixed with 1 mL/50 mL lysate Ni Sepharose™ 6 Fast Flow (Cytiva) pre-equilibrated with Wash buffer (50 mM Tris-Cl pH 8, 20 mM Imidazole, 500 mM NaCl, 10% Glycerol, 1 mM TCEP) and incubated with slow stirring for 1 h. The mix was loaded in a 70 mL open gravity flow column, washed with 10 bed volumes of Wash buffer, and stepwise eluted with 300 mM imidazole in Wash buffer. […] After biotinylation, the CBRN/DDB1 complex was purified by Size Exclusion Chromatography on a HiLoad™ 26/60 Superdex™ 200 column equilibrated in SEC buffer (50 mM HEPES pH 7.5, 200 mM NaCl, 5% glycerol, 1 mM TCEP) before flash-freezing in liquid nitrogen and storage at −80° C.
The assay mixture in a total volume of 4 μL consists of 50 mM Tris-HCl at pH 7.5, 100 mM NaCl, 0.01% Pluronic F127, 1 mM TCEP, 500 μM EDTA, 0.2 nM CRBN-DDB1, 0.2 nM terbium cryptate labeled streptavidin, and 2 nM Cyanine 5-labeled lenalidomide as the probe. […] Reagents were dispensed into the 384-well assay microplate using a Certus Flex liquid dispenser. After incubation for 2 h at r.t., the assay plates were read on a PHERAstar FSX plate reader (BMG Labtech) in the HTRF mode. The raw data from PHERAstar was directly imported into Genedata Screener for analysis. […] The ratio was normalized to positive and negative controls on the same plates to calculate percent inhibition: I %=(I−NC)/(PC−NC), where I are readings from the compound treated well, NC and PC are average readings from negative control wells and positive control wells, respectively. IC50 values were obtained by fitting the I % vs. compound concentration [I] to I %=S0+(SInf−S0)/(1+((IC50/[I])^n)), where S0 is the fitted activity level at zero concentration of test compound, SInf is the fitted activity level at […] concentration of test compound, and n is the hill coefficient of the curve.
The IC50 values reported below are the calculated mean result of one or more experiments.

T1 sequence (Q96SW2 with tags, fused parts or gaps): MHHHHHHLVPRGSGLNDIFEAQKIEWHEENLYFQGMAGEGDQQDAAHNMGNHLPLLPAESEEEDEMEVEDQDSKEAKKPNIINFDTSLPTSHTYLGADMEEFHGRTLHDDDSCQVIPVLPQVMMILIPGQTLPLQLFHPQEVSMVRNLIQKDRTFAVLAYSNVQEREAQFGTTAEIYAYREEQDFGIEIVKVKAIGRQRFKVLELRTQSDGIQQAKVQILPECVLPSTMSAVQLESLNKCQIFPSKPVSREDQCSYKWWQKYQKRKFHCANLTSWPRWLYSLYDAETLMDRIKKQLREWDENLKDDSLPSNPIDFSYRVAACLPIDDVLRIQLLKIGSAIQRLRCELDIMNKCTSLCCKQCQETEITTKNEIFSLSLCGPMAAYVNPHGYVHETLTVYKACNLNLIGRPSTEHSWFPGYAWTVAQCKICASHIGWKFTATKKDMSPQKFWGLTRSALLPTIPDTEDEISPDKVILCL

| SMILES | IC50 |
| --- | --- |
| O=C1CCN(c2ccc3ccn(C4CCNCC4)c3c2)C(=O)N1 [Example 120, 1-(1-(Piperidin-4-yl)-1H-indol-6-yl)dihydropyrimidine-2,4 (1H,3H)-dione] | 2200 nM |
| CN1CCn2c(cc3cc(N4CCC(=O)NC4=O)ccc32)C1 [Example 105, 1-(2-Methyl-1,2,3,4-tetrahydropyrazino[1,2-a]indol-8-yl)dihydropyrimidine-2,4 (1H,3H)-dione] | 460 nM |
| O=C1CCN(c2ccc3c(cnn3C3CCNCC3)c2)C(=O)N1 [Example 106, 1-(1-(Piperidin-4-yl)-1H-indazol-5-yl)dihydropyrimidine-2,4 (1H,3H)-dione] | 4040 nM |
| Cc1c(-n2ccc(=O)[nH]c2=O)cnc2cc[nH]c12 [Example 48, 1-(7-Methyl-1H-pyrrolo[3,2-b]pyridin-6-yl)pyrimidine-2,4 (1H,3H)-dione] | 1970 nM |
| CN1CCN(c2cn(C)c3ccc(N4CCC(=O)NC4=O)cc23)CC1 [Example 80, 1-(1-Methyl-3-(4-methylpiperazin-1-yl)-1H-indol-5-yl)dihydropyrimidine-2,4 (1H,3H)-dione] | 3150 nM |
| O=C1CCN(c2ccc3c(c2)NCCC3)C(=O)N1 [Example 32, 1-(1,2,3,4-Tetrahydroquinolin-7-yl)dihydropyrimidine-2,4 (1H,3H)-dione] | 1230 nM |
| CC(=O)N1CCN(c2c[nH]c3cc(N4CCC(=O)NC4=O)ccc23)CC1 [Example 73, 1-(3-(4-Acetylpiperazin-1-yl)-1H-indol-6-yl)dihydropyrimidine-2,4 (1H,3H)-dione] | 963 nM |
| O=C1CCN(c2cc3[nH]ccc3cc2F)C(=O)N1 [Example 60, 1-(5-Fluoro-1H-indol-6-yl)dihydropyrimidine-2,4 (1H,3H)-dione] | 444 nM |
| CN1CCn2c(cc3ccc(N4CCC(=O)NC4=O)cc32)C1 [Example 103, 1-(2-Methyl-1,2,3,4-tetrahydropyrazino[1,2-a]indol-7-yl)dihydropyrimidine-2,4 (1H,3H)-dione] | 682 nM |
| O=C1CCN(c2ccc3c(c2)cc2n3CCNC2)C(=O)N1 [Example 104, 1-(1,2,3,4-Tetrahydropyrazino[1,2-a]indol-8-yl)dihydropyrimidine-2,4 (1H,3H)-dione] | 283 nM |
| CN1CCN(c2c[nH]c3ccc(N4CCC(=O)NC4=O)cc23)CC1 [Example 78, 1-(3-(4-Methylpiperazin-1-yl)-1H-indol-5-yl)dihydropyrimidine-2,4 (1H,3H)-dione] | 1870 nM |
| CN1CCC(n2cc3ccc(-n4ccc(=O)[nH]c4=O)cc3n2)CC1 [Example 132, 1-(2-(1-Methylpiperidin-4-yl)-2H-indazol-6-yl)pyrimidine-2,4 (1H,3H)-dione] | 2160 nM |
| O=C1CCN(c2ccc3c(ccn3C3CCNCC3)c2)C(=O)N1 [Example 113, 1-(1-(Piperidin-4-yl)-1H-indol-5-yl)dihydropyrimidine-2,4 (1H,3H)-dione] | 1080 nM |
| O=C1CCN(c2ccc3[nH]ccc3c2)C(=O)N1 [Example 56, 1-(1H-Indol-5-yl)dihydropyrimidine-2,4 (1H,3H)-dione] | 341 nM |
| O=C1CCN(c2cccc3[nH]ccc23)C(=O)N1 [Example 18, 1-(1H-Indol-4-yl)dihydropyrimidine-2,4 (1H,3H)-dione] | 347 nM |
| O=C1CCN(c2cccc3[nH]ncc23)C(=O)N1 [Example 34, 1-(1H-Indazol-4-yl)dihydropyrimidine-2,4 (1H,3H)-dione] | 627 nM |
| Cn1ncc2cc(N3CCC(=O)NC3=O)ccc21 [Example 6, 1-(1-Methyl-1H-indazol-5-yl)dihydropyrimidine-2,4 (1H,3H)-dione] | 3930 nM |

| SMILES | IC50 |
| --- | --- |
| CN1CCC(c2cc3c(N4CCC(=O)NC4=O)cccc3n2C)CC1 [Example 89, 1-(1-Methyl-2-(1-methylpiperidin-4-yl)-1H-indol-4-yl)dihydropyrimidine-2,4 (1H,3H)-dione] | 1210 nM |
| O=C1CCN(c2ccc3[nH]ncc3c2)C(=O)N1 [Example 35, 1-(1H-Indazol-5-yl)dihydropyrimidine-2,4 (1H,3H)-dione] | 2970 nM |
| CN1CCN(c2noc3cc(N4CCC(=O)NC4=O)ccc23)CC1 [Example 94, 1-(3-(4-Methylpiperazin-1-yl)benzo[d]isoxazol-6-yl)dihydropyrimidine-2,4 (1H,3H)-dione] | 4200 nM |
| O=C1CCN(c2ccc3c(N4CCNCC4)c[nH]c3c2)C(=O)N1 [Example 71, 1-(3-(Piperazin-1-yl)-1H-indol-6-yl)dihydropyrimidine-2,4 (1H,3H)-dione] | 1130 nM |
| O=C1CCN(c2ccc3nc(C4CCNCC4)oc3c2)C(=O)N1 [Example 96, 1-(2-(Piperidin-4-yl)benzo[d]oxazol-6-yl)dihydropyrimidine-2,4 (1H,3H1)-dione] | 3740 nM |
| O=C1CCN(c2ccc3[nH]c(=O)oc3c2)C(=O)N1 [Example 46, 1-(2-Oxo-2,3-dihydrobenzo[d]oxazol-6-yl)dihydropyrimidine-2,4 (1H,3H)-dione] | 3750 nM |
| Cn1c(C2CCNCC2)cc2ccc(N3CCC(=O)NC3=O)cc21 [Example 84, 1-(1-Methyl-2-(piperidin-4-yl)-1H-indol-6-yl)dihydropyrimidine-2,4 (1H,3H)-dione] | 357 nM |
| CN1CCN(c2cn(C)c3cc(N4CCC(=O)NC4=O)ccc23)CC1 [Example 75, 1-(1-Methyl-3-(4-methylpiperazin-1-yl)-1H-indol-6-yl)dihydropyrimidine-2,4 (1H,3H)-dione] | 4040 nM |
| CN1Cc2ccc(N3CCC(=O)NC3=O)cc2C1 [Example 25, 1-(2-Methylisoindolin-5-yl)dihydropyrimidine-2,4 (1H,3H)-dione] | 2960 nM |
| COCc1cc(N2CCC(=O)NC2=O)c2ccn(C)c2c1 [Example 19, 1-(6-(Methoxymethyl)-1-methyl-1H-indol-4-yl)dihydropyrimidine-2,4 (1H,3H)-dione] | 430 nM |
| O=C1CCN(c2ccc3c(c2)C(=O)NC3)C(=O)N1 [Example 44, 1-(3-Oxoisoindolin-5-yl)dihydropyrimidine-2,4 (1H,3H)-dione] | 8470 nM |
| Cn1cc2cc(N3CCC(=O)NC3=O)ccc2n1 [Example 8, 1-(2-Methyl-2H-indazol-5-yl)dihydropyrimidine-2,4 (1H,3H)-dione] | 4570 nM |
| O=C1CCN(c2ccn3cc(C4CCNCC4)nc3c2)C(=O)N1 [Example 92, 1-(2-(Piperidin-4-yl)imidazo[1,2-a]pyridin-7-yl)dihydropyrimidine-2,4 (1H,3H)-dione] | 5240 nM |
| Cn1ccc2c(N3CCC(=O)NC3=O)cc(N3CCNCC3)cc21 [Example 90, 1-(1-Methyl-6-(piperazin-1-yl)-1H-indol-4-yl)dihydropyrimidine-2,4 (1H,3H)-dione] | 771 nM |
| O=C1CCN(c2ccn3ccnc3c2)C(=O)N1 [Example 7, 1-(Imidazo[1,2-a]pyridin-7-yl)dihydropyrimidine-2,4 (1H,3H)-dione] | 3000 nM |
| CN1CCc2ccc(N3CCC(=O)NC3=O)cc2C1 [Example 29, 1-(2-Methyl-1,2,3,4-tetrahydroisoquinolin-7-yl)dihydropyrimidine-2,4 (1H,3H)-dione] | 8010 nM |
| O=C1CCN(c2ccc3c(C4CCNCC4)c[nH]c3c2)C(=O)N1 [Example 116, 1-(3-(Piperidin-4-yl)-1H-indol-6-yl)dihydropyrimidine-2,4 (1H,3H)-dione] | 368 nM |
